The numbers were not newly measured in the PKSmart pharmacokinetics tables (Seal et al. 2025), which cites them from elsewhere.

One may read the MRT as the average time that molecules of a dose stay in the body. The Vd is a proportionality between amount in the body and measured concentration, not a real space. As a reminder, the clearance is the rate of elimination divided by the concentration. One may read the half-life as the time needed for the level to fall by half in the phase considered. As a reminder, the fraction unbound is the share of the substance not bound to proteins or other matrix.

A short description of this data set: Lombardo, Berellini, Obach 2018, Drug Metab Dispos 46:1466, doi 10.1124/dmd.118.082966. Conditions: human; for MRT / Vd / clearance / half-life: in vivo, iv; for fraction unbound: plasma.

As to `CCOC(=O)c1ccc(C#Cc2ccc3c(c2)C(C)(C)CCS3)nc1`, the MRT was 1.56 h, the Vd is 3.55 L/kg, the clearance was 37.2 mL/min/kg and the half-life was 6.22 h.
For the compound `CN/C(=N\CCSCc1nc[nH]c1C)NC#N`, the MRT is 2.5 h, the Vd was 1.2 L/kg, the clearance was 8.1 mL/min/kg and the half-life is 2.2 h.
As for `CC(N)CCCC(C)(C)O` (stereo not given), the MRT is 3.24 h, the Vd is 2.14 L/kg, the clearance was 10.7 mL/min/kg and the half-life is 2.5 h.
As for `Cc1cnc(NCCCN(C)C)c2c1[nH]c1ccc3cc(O)ccc3c12`, the MRT was 11 h, the Vd is 11 L/kg, the clearance was 18 mL/min/kg and the half-life was 19 h.
Take `C[C@H](/C=C/[C@H](C)C(C)(C)O)[C@H]1CC[C@H]2/C(=C/C=C3C[C@@H](O)C[C@H](O)C3)CCC[C@]12C`: the MRT is 7.7 h, the Vd is 0.41 L/kg, the clearance is 0.89 mL/min/kg and the half-life is 5.3 h.
For the compound `CON=C(C(=O)NC1C(=O)N2C(C(=O)[O-])=C(C[n+]3ccc(-c4cnco4)cc3)CS[C@H]12)c1csc(N)n1` (stereo not given in full), the MRT is 2.64 h, the Vd is 0.22 L/kg, the clearance is 1.76 mL/min/kg and the half-life was 1.78 h.
Regarding `C[C@@]1(Cn2ccnn2)C(C(=O)O)N2C(=O)C[C@H]2S1(=O)=O` (stereo not given in full), the MRT was 0.89 h, the Vd was 0.26 L/kg, the clearance is 4.81 mL/min/kg and the half-life is 0.97 h. In addition, the fraction unbound is 0.7.
Turning to `C=C1C=CC=C(C)[C@H](O)[C@@H](C)[C@@H](O)[C@@H](C)[C@H](OC(C)=O)[C@H](C)[C@@H](OC)/C=C/O[C@@]2(C)Oc3c(C)c(O)c4c(O)c(c5c(c4c3C2=O)NC2(CCN(CC(C)C)CC2)N5)NC1=O`, the MRT is 65 h, the Vd was 9.3 L/kg, the clearance is 2.4 mL/min/kg and the half-life is 37 h.
Turning to `N[C@@]1(C(=O)O)CS(=O)(=O)[C@H]2C(C(=O)O)[C@H]21` (stereo not given in full), the MRT was 1.44 h, the Vd is 0.21 L/kg, the clearance is 2.4 mL/min/kg and the half-life is 1.23 h.
Regarding `Clc1ccc(COC(Cn2ccnc2)c2ccc(Cl)cc2Cl)c(Cl)c1` (stereo not given), the MRT is 12.6 h, the Vd was 7.14 L/kg, the clearance is 9.48 mL/min/kg and the half-life is 19.8 h. The fraction unbound is 0.08.
With `C[N+]1(CC2CC2)CC[C@]23c4c5ccc([O-])c4OC2C(=O)CC[C@@]3(O)[C@H]1C5` (stereo not given in full), the fraction unbound was 0.87.
On to `COc1ccc2c(c1OC)C(=O)O[C@@H]2[C@H]1c2c(cc3c(c2OC)OCO3)CCN1C`, for which the MRT is 2.28 h, the Vd was 2.3 L/kg, the clearance was 16.9 mL/min/kg and the half-life is 2.13 h.
Turning to `CC1=C(C(=O)O)N2C(=O)C(NC(=O)C(N)c3ccc(O)cc3)[C@H]2SC1` (stereo not given in full), the MRT was 1.5 h, the Vd was 0.23 L/kg, the clearance was 2.5 mL/min/kg and the half-life was 1.1 h.
With `CCCCc1oc2ccc(NS(C)(=O)=O)cc2c1C(=O)c1ccc(OCCCN(CCCC)CCCC)cc1`, the MRT is 10 h, the Vd was 20 L/kg, the clearance was 33.3 mL/min/kg and the half-life was 16 h. Moreover, the fraction unbound was 0.02.
In the case of `Cc1onc(-c2c(Cl)cccc2Cl)c1C(=O)NC1C(=O)N2C(C(=O)O)C(C)(C)S[C@H]12` (stereo not given in full), the MRT was 0.92 h, the Vd is 0.11 L/kg, the clearance was 2 mL/min/kg and the half-life is 0.88 h.
Take `Cc1ncc([N+](=O)[O-])n1C[C@H](O)CCl`: the MRT is 18.1 h, the Vd was 1.16 L/kg, the clearance is 1.08 mL/min/kg and the half-life is 12 h. For the same compound, the fraction unbound is 0.88.
As for `C[C@@H](OC[C@@]1(c2ccccc2)CC[C@]2(CCC(=O)N2)CN1)c1cc(C(F)(F)F)cc(C(F)(F)F)c1`, the clearance was 0.38 mL/min/kg, the half-life was 148 h and the fraction unbound is 0.002.
On to `C[C@@H]1CCN(C(=O)CC#N)C[C@@H]1N(C)c1ncnc2[nH]ccc12`, for which the MRT was 3.5 h, the Vd was 1.24 L/kg, the clearance is 5.88 mL/min/kg and the fraction unbound was 0.6.
Take `Nc1nc(CC(=O)Nc2ccc(CCNC[C@H](O)c3ccccc3)cc2)cs1`: the MRT was 29.3 h, the Vd is 23.8 L/kg, the clearance was 13.6 mL/min/kg and the half-life is 50 h. Moreover, the fraction unbound was 0.29.
Consider `O=C(Cn1ccnc1[N+](=O)[O-])NCC(O)C(F)(F)F` (stereo not given), for which the MRT was 3.86 h, the Vd was 0.69 L/kg, the clearance was 3 mL/min/kg and the half-life was 3.45 h.
Regarding `Cc1cc(NC(=O)C2C(=O)c3ccccc3S(=O)(=O)N2C)no1` (stereo not given), the MRT was 44 h, the volume of distribution (Vd) is 0.19 L/kg, the clearance was 0.07 mL/min/kg and the half-life is 33 h.
As for `CC1(C)S[C@@H]2C(NC(=O)C(c3ccccc3)S(=O)(=O)O)C(=O)N2C1C(=O)O` (stereo not given in full), the mean residence time (MRT) is 1.6 h, the Vd was 0.15 L/kg, the clearance is 1.6 mL/min/kg and the half-life was 1.2 h. The fraction unbound is 0.5.
Regarding `C[C@@H]1[C@H](O)[C@@H](C)C=CC=CC=CC=CC=CC=CC=C[C@H](O[C@H]2O[C@H](C)[C@@H](O)[C@H](N)[C@@H]2O)C[C@@H]2O[C@@](O)(C[C@@H](O)C[C@@H](O)[C@H](O)CC[C@@H](O)C[C@@H](O)CC(=O)O[C@H]1C)C[C@H](O)C2C(=O)O` (stereo not given in full), the mean residence time (MRT) is 61 h, the Vd is 0.62 L/kg, the clearance is 0.17 mL/min/kg and the half-life was 40 h. The fraction unbound is 0.03.
For the compound `CN(c1nccc(=O)[nH]1)C1CCN(c2nc3ccccc3n2Cc2ccc(F)cc2)CC1`, the MRT is 6 h, the Vd was 0.38 L/kg, the clearance was 1.03 mL/min/kg and the half-life is 9.6 h.
Consider `NS(=O)(=O)c1ccc(S(=O)(=O)Nc2cccc3c(Cl)c[nH]c23)cc1`, for which the MRT was 16.9 h, the volume of distribution (Vd) is 0.68 L/kg, the clearance is 0.72 mL/min/kg and the half-life is 20.3 h. The fraction unbound was 0.001.
As for `CCc1cnn2c(NCc3ccc[n+]([O-])c3)cc(N3CCCC[C@H]3CCO)nc12`, the MRT was 1.1 h, the Vd was 0.32 L/kg, the clearance is 4.65 mL/min/kg and the half-life was 2.1 h.
For the compound `C=CC[N+]1([C@H]2C[C@H]3[C@@H]4CC[C@H]5C[C@H](O)[C@@H](N6CCOCC6)C[C@]5(C)[C@H]4CC[C@]3(C)[C@H]2OC(C)=O)CCCC1`, the MRT is 0.95 h, the Vd was 0.21 L/kg, the clearance was 3.7 mL/min/kg and the half-life was 1.6 h. The fraction unbound was 0.54.
Turning to `O=S(=O)(O)c1cc(O)ccc1O`, the MRT was 2.41 h, the Vd was 0.12 L/kg, the clearance is 0.87 mL/min/kg and the half-life is 2.01 h.
With `COc1c(C)c2c(c(O)c1C/C=C(\C)CCC(=O)O)C(=O)OC2`, the MRT was 6.5 h, the Vd was 0.77 L/kg, the clearance is 2.33 mL/min/kg and the half-life was 9.7 h. Besides, the fraction unbound is 0.02.
Consider `C[C@H]1c2cccc(O)c2C(=O)C2=C(O)[C@]3(O)C(=O)C(C(N)=O)=C(O)[C@@H](N(C)C)[C@@H]3[C@@H](O)[C@@H]21`, for which the MRT is 25 h, the Vd was 0.69 L/kg, the clearance is 0.46 mL/min/kg and the half-life was 14 h.
Consider `CC(C)(C)c1[nH]cnc1/C=c1\[nH]c(=O)/c(=C/c2ccccc2)[nH]c1=O`, for which the MRT is 6.7 h, the Vd was 3 L/kg, the clearance was 7.4 mL/min/kg and the half-life was 6.3 h.
Take `CCCCCc1cc(O)c2c(c1)OC(C)(C)[C@@H]1CCC(C)=C[C@@H]21`: the MRT is 46 h, the Vd is 8.9 L/kg, the clearance was 3.2 mL/min/kg and the half-life was 33 h. Besides, the fraction unbound is 0.05.
